Data as given in patent publication US10955413B2, “Method for measuring zygomycota and reagent kit for measuring zygomycota” (SEIKAGAKU CORPORATION, priority 2015, dated 2021).

Test system: anti-chitosan polyclonal antibody (CTSpAb)
Assay: Competitive ELISA with 3-mer to 6-mer CTS oligosaccharide as competitive substance
Assay type: binding, fowl
Settings: CTSpAb diluted 8,000-fold
Protocol: The Molecular Size of CTS which can be assayed by CTSpAb was determined through a competitive ELISA employing a 3-mer to 6-mer CTS oligosaccharide (product of Seikagaku Corporation) as a competitive substance.
To CTS, 1% (v/v) acetic acid was added so as to adjust the concentration to 2 μg/mL. The thus-prepared solution was added to a plate at 50 μL/well, and the plate was allowed to stand overnight at 4° C. The plate was washed twice with 9.57 mM PBS (pH: 7.5) at 300 μL/well, and then 25% BA/9.57 mM PBS (pH: 7.5) was added thereto at 200 μL/well. The plate was allowed to stand for 1 hour, to thereby fabricate CTS-immobilized plate. The plate was washed repeatedly four times with PBS-T at 300 μL/well. To the plate, a solution prepared by adding 10% BA/PBS-T to the CTS oligosaccharide so as to adjust the concentration to 0.00064 to 10 μg/mL, or 10% BA/PBS-T (CTS oligosaccharide-free) was added to the plate at 100 μL/well. Then, CTSpAb diluted 8,000-fold with 10% BA/PBS-T was added to the plate at 100 μL/well, and the plate was allowed to stand for 1 hour. The plate was washed repeatedly four times with PBS-T at 300 μL/well. Subsequently, a product of peroxidase-labeled anti-fowl IgY (IgG) (H+L) antibody 5,000-fold diluted with 10% BA/PBS-T was added to the plate at 100 μL/well, and the plate was allowed to stand for 1 hour. The plate was washed repeatedly four times with PBS-T at 300 μL/well, and then, TMB reagent was added to the plate at 100 μL/well, and the plate was allowed to stand for 30 minutes. Then, 1 N HCl was added to the plate at 100 μL/well. The absorbance of each well of the plate was measured by means of a well reader MP-96 at a measurement wavelength of 450 nm and a reference wavelength of 630 nm.
As is clear from Table 3, binding of CTSpAb to CTS on the plate was inhibited by 3- to 6-mer CTS oligosaccharide.

[1] = CTS oligosaccharide 0.00064 μg/mL
[2] = CTS oligosaccharide 0.0032 μg/mL
[3] = CTS oligosaccharide 0.016 μg/mL

Compound | % Inhibition [1] [%] | % Inhibition [2] [%] | % Inhibition [3] [%] | % Inhibition (CTS oligosaccharide 0.08 μg/mL) [%] | % Inhibition (CTS oligosaccharide 0.4 μg/mL) [%] | % Inhibition (CTS oligosaccharide 2 μg/mL) [%] | % Inhibition (CTS oligosaccharide 10 μg/mL) [%]
N[C@H]1[C@H](O[C@H]2[C@H](O)[C@@H](N)[C@H](O[C@H]3[C@H](O)[C@@H](N)C(O)O[C@@H]3CO)O[C@@H]2CO)O[C@H](CO)[C@@H](O)[C@@H]1O (stereo partly drawn) [3-mer] | 6 | 9 | 11 | 16 | 24 | 32 | 44
N[C@H]1[C@H](O[C@H]2[C@H](O)[C@@H](N)[C@H](O[C@H]3[C@H](O)[C@@H](N)[C@H](O[C@H]4[C@H](O)[C@@H](N)[C@H](O[C@H]5[C@H](O)[C@@H](N)C(O)O[C@@H]5CO)O[C@@H]4CO)O[C@@H]3CO)O[C@@H]2CO)O[C@H](CO)[C@@H](O)[C@@H]1O (stereo partly drawn) [5-mer] | 28 | 42 | 55 | 65 | 69 | 70 | 70
N[C@H]1[C@H](O[C@H]2[C@H](O)[C@@H](N)[C@H](O[C@H]3[C@H](O)[C@@H](N)[C@H](O[C@H]4[C@H](O)[C@@H](N)[C@H](O[C@H]5[C@H](O)[C@@H](N)[C@H](O[C@H]6[C@H](O)[C@@H](N)C(O)O[C@@H]6CO)O[C@@H]5CO)O[C@@H]4CO)O[C@@H]3CO)O[C@@H]2CO)O[C@H](CO)[C@@H](O)[C@@H]1O (stereo partly drawn) [6-mer, chitosan hexamer] | 25 | 39 | 51 | 63 | 66 | 68 | 68
